In ChEMBL document CHEMBL5038629, “Light-Triggered Fluorescence Self-Reporting Nitric Oxide Release from Coumarin Analogues for Accelerating Wound Healing and Synergistic Antimicrobial Applications” (J Med Chem, 2022):
The source made the active and inactive calls. The calls are words filed in the database; no cut-off is given here.

Experiments:
[1] = NO releasing activity assessed as increase in fluorescence intensity upon exposure to UV light at 0 to 18 uM by fluorescence based analysis; type: functional; settings: dose 0-18 µM
[2] = NO releasing activity assessed as increase in fluorescence intensity at 420 nm upon exposure to UV light measured after 0 to 5 mins by fluorescence based analysis; type: functional; settings: time 0-5 min
[3] = Photolysis of compound in DMSO/PBS assessed as 4-methyl-7-(2-nitrobenzylamino)-2H-chromen-2-one and AMC formation along with NO release upon exposure to UV light and measured after 30 mins by HPLC analysis; type: functional
[4] = Photolysis of compound in DMSO/PBS assessed as 4-methyl-7-(2-nitrobenzylamino)-2H-chromen-2-one and AMC formation along with NO release upon exposure to UV light by mass spectrometry; type: functional
HUVEC [5] = experiment: Cytotoxicity against human HUVEC cells assessed as reduction in cell viability upto 60 uM measured after 8 hrs by CCK8 assay; type: functional, cell-based; settings: dose microM <=60, time 8.0 hrs
RAW264.7 [6] = experiment: Cytotoxicity against mouse RAW264.7 cells assessed as reduction in cell viability upto 60 uM measured after 8 hrs by CCK8 assay; type: functional, cell-based; settings: dose microM <=60, time 8.0 hrs
L02 [7] = experiment: Cytotoxicity against human L02 cells assessed as reduction in cell viability upto 60 uM measured after 8 hrs by CCK8 assay; type: functional, cell-based; settings: dose microM <=60, time 8.0 hrs
HUVEC [8] = experiment: Induction of angiogenesis in human HUVEC cells assessed as increase in cell migration rate upon UV light irradiation and measured after 12 to 24 hrs by cell scratch test; type: functional, cell-based; settings: time 12-24 hrs
HUVEC [9] = experiment: Induction of angiogenesis in human HUVEC cells assessed as increase in tube formation upon exposure to UV light irradiation measured after 24 hrs; type: functional, cell-based
HepG2 = experiment: NO releasing activity in human HepG2 cells assessed as increase in red fluorescence intensity at 10 uM upon exposure to UV light irradiation for 10s by DAQ probe based fluorescence analysis; type: ADME, cell-based; settings: hepg2, 10 s
HUVEC [10] = experiment: Induction of angiogenesis in human HUVEC cells assessed as increase in cell proliferation upto 60 uM upon exposure to UV light irradiation and measured after 8 hrs by CCK8 assay; type: functional, cell-based; settings: dose microM <=60, time 8.0 hrs
Staphylococcus aureus [11] = experiment: Inhibition of biofilm formation in methicillin-resistant Staphylococcus aureus assessed as increase in planktonic bacteria at 10 uM upon exposure to UV light irradiation and measured after 48 hrs by NB plate based imaging analysis; type: functional, organism-based
Staphylococcus aureus [12] = experiment: Inhibition of biofilm formation in methicillin-resistant Staphylococcus aureus assessed as decrease in biofilm mass at 10 uM upon exposure to UV light irradiation and measured after 48 hrs in presence of levofloxacin by dilution plate coating method; type: functional; settings: light or radiation study
Staphylococcus aureus [13] = experiment: Inhibition of biofilm formation in methicillin-resistant Staphylococcus aureus assessed as decrease in biofilm mass at 10 uM upon exposure to UV light irradiation and measured after 48 hrs by dilution plate coating method; type: functional; settings: light or radiation study
Staphylococcus aureus [14] = experiment: Inhibition of biofilm formation in methicillin-resistant Staphylococcus aureus assessed as biofilm dispersal effect at 10 uM incubated for 5 hrs followed by exposure to UV light irradiation for 1 min in presence of levofloxacin by crystal violet staining based analysis; type: functional; design: scale not given: the % may be the effect or the level left; settings: time 301 min, 5.017 h
Staphylococcus aureus [15] = experiment: Inhibition of biofilm formation in methicillin-resistant Staphylococcus aureus assessed as biofilm dispersal effect at 10 uM incubated for 5 hrs followed by exposure to UV light irradiation for 1 min by crystal violet staining based analysis; type: functional; design: scale not given: the % may be the effect or the level left; settings: time 301 min, 5.017 h
Mus musculus [16] = experiment: Acceleration of wound healing in methicillin-resistant Staphylococcus aureus infected CD1 mouse assessed as increase in wound healing rate using UV light-irradiated compound at 10 uM, sc on days 0, 3, 7 and 14 in presence of 10 uM levofloxacin; type: functional, organism-based; settings: time 15.0 day
Mus musculus [17] = experiment: (§1) Acceleration of wound healing in methicillin-resistant Staphylococcus aureus infected CD1 mouse assessed as boosted collagen deposition and granulation tissue in skin using UV light-irradiated compound at 10 uM, sc on days 0, 3, 7 and 14 and measured on day 14 by H and E staining based analysis; type: functional, organism-based; settings: time 15.0 day
Mus musculus [18] = experiment: as §1, with “and 14 in presence of levofloxacin and measured” for “and 14 and measured”; type: functional, organism-based; settings: time 15.0 day
[19] = NO releasing activity assessed as increase in fluorescence intensity upon exposure to UV light at 1 to 10 uM measured after 30 mins by fluorescence based analysis; type: functional; settings: dose 1-10 µM
[20] = NO releasing activity upon exposure to UV light irradiation in presence of Hcy by fluorescence based analysis; type: functional
[21] = NO releasing activity upon exposure to UV light irradiation in presence of GSH by fluorescence based analysis; type: functional
[22] = NO releasing activity upon exposure to UV light irradiation in presence of Cys by fluorescence based analysis; type: functional
[23] = NO releasing activity at 20 uM upon exposure to UV light irradiation for 5 mins by EPR spectroscopy; type: functional
[24] = NO releasing activity in PBS buffer of 20% DMSO at 20 uM upon exposure to UV light irradiation by amperometric method; type: functional
[25] = NO releasing activity assessed as NO release efficiency at 10 uM by Griess assay relative to NaNO2; type: functional
[26] = NO releasing activity assessed as NO release efficiency at 20 uM by Griess assay relative to NaNO2; type: functional
[27] = NO releasing activity assessed as NO release efficiency at 40 uM by Griess assay relative to NaNO2; type: functional
[28] = NO releasing activity assessed as NO release efficiency at 60 uM by Griess assay relative to NaNO2; type: functional
[29] = NO releasing activity assessed as NO release efficiency at 80 uM by Griess assay relative to NaNO2; type: functional
[30] = NO releasing activity assessed as NO release efficiency at 100 uM by Griess assay relative to NaNO2; type: functional
[31] = NO releasing activity at 100 uM upon exposure to UV light irradiation by DAF-2 probe based fluorescence analysis; type: functional
[32] = NO releasing activity upon exposure to UV light irradiation at 50 to 70 degC measured after 4 to 8 hrs by fluorescence based analysis; type: functional; settings: time 4-8 hrs
[33] = NO releasing activity upon exposure to UV light irradiation at pH 4 to 8 by fluorescence based analysis; type: functional
[34] = NO releasing activity in Tol solvent upon exposure to UV light irradiation by fluorescence based analysis; type: functional
[35] = NO releasing activity in Diox-solvent upon exposure to UV light irradiation by fluorescence based analysis; type: functional
[36] = NO releasing activity in EA solvent upon exposure to UV light irradiation by fluorescence based analysis; type: functional
[37] = NO releasing activity in TCM solvent upon exposure to UV light irradiation by fluorescence based analysis; type: functional
[38] = NO releasing activity in DMK solvent upon exposure to UV light irradiation by fluorescence based analysis; type: functional
[39] = NO releasing activity in CAN solvent upon exposure to UV light irradiation by fluorescence based analysis; type: functional
[40] = NO releasing activity in DMSO solvent upon exposure to UV light irradiation by fluorescence based analysis; type: functional
[41] = NO releasing activity in IPA solvent upon exposure to UV light irradiation by fluorescence based analysis; type: functional
[42] = NO releasing activity in MeOH solvent upon exposure to UV light irradiation by fluorescence based analysis; type: functional
[43] = NO releasing activity upon exposure to UV light irradiation at powers from 3 to 15 mW/cm2 by fluorescence based analysis; type: functional
[44] = NO releasing activity upon exposure to UV light irradiation in presence of Ala by fluorescence based analysis; type: functional
[45] = NO releasing activity upon exposure to UV light irradiation in presence of Phe by fluorescence based analysis; type: functional
[46] = NO releasing activity upon exposure to UV light irradiation in presence of Arg by fluorescence based analysis; type: functional
[47] = NO releasing activity upon exposure to UV light irradiation in presence of […] by fluorescence based analysis; type: functional
[48] = NO releasing activity upon exposure to UV light irradiation in presence of Trp by fluorescence based analysis; type: functional
[49] = NO releasing activity upon exposure to UV light irradiation in presence of Ser by fluorescence based analysis; type: functional
[50] = NO releasing activity upon exposure to UV light irradiation in presence of Asp by fluorescence based analysis; type: functional
[51] = NO releasing activity upon exposure to UV light irradiation in presence of His by fluorescence based analysis; type: functional
[52] = NO releasing activity upon exposure to UV light irradiation in presence of HClO by fluorescence based analysis; type: functional
[53] = NO releasing activity upon exposure to UV light irradiation in presence of Na2S by fluorescence based analysis; type: functional
[54] = NO releasing activity upon exposure to UV light irradiation in presence of NaSO4 by fluorescence based analysis; type: functional
RAW264.7 [55] = experiment: Induction of angiogenesis in mouse RAW264.7 cells assessed as increase in cell proliferation upto 60 uM upon exposure to UV light irradiation and measured after 8 hrs by CCK8 assay; type: functional, cell-based; settings: dose microM <=60, time 8.0 hrs
L02 [56] = experiment: Induction of angiogenesis in human L02 cells assessed as increase in cell proliferation upto 60 uM upon exposure to UV light irradiation and measured after 8 hrs by CCK8 assay; type: functional, cell-based; settings: dose microM <=60, time 8.0 hrs
L02 [57] = experiment: NO releasing activity in human L02 cells assessed as increase in red fluorescence intensity at 10 uM upon exposure to UV light irradiation for 10s by DAQ probe based fluorescence analysis; type: ADME, cell-based; settings: l02, 10 s
[58] = Stability of the compound in human HepG2 cells at 10 uM by DAQ probe based fluorescence analysis; type: ADME, cell-based; settings: hepg2, 10 µM
[59] = Stability of the compound in human L02 cells at 10 uM by DAQ probe based fluorescence analysis; type: ADME, cell-based; settings: l02, 10 µM
Staphylococcus aureus [60] = experiment: Inhibition of biofilm formation in methicillin-resistant Staphylococcus aureus assessed as increase in planktonic bacteria at 10 uM upon exposure to UV light irradiation and measured after 48 hrs in presence of levofloxacin by NB plate based imaging analysis; type: functional; design: scale not given: the % may be the effect or the level left
Staphylococcus aureus [61] = experiment: Antibacterial activity against methicillin-resisitant Staphylococcus aureus assessed as wrinkled bacterial membrane formation at 10 uM incubated for 5 hrs followed by exposure to UV light irradiation for 1 min in presence of levofloxacin by scanning electron microscopy; type: functional, organism-based; settings: time 301.0 min
[62] = Toxicity in methicillin-resistant Staphylococcus aureus-infected CD1 mouse assessed as change in body weight using UV light-irradiated compound at 10 uM, sc on days 0, 3, 7 and 14; type: organism-based; settings: in vivo, 360 h, time 15 day
Mus musculus [63] = experiment: Induction of angiogenesis in methicillin-resistant Staphylococcus aureus infected CD1 mouse assessed as increase in CD31 surface expression in skin by measuring increase in green fluorescence intensity using UV light-irradiated compound at 10 uM, sc on days 0, 3, 7 and 14 in presence of levofloxacin and measured on day 14 by immunofluorescence staining based analysis; type: functional, organism-based; settings: time 15.0 day

Cc1cc(=O)oc2cc(N(Cc3ccccc3[N+](=O)[O-])N=O)ccc12
Drug metabolism [1]: Metabolite detected
Drug metabolism [2]: Metabolite detected
Drug metabolism [3]: Metabolite detected
Drug metabolism [4]: Metabolite detected
Activity (HUVEC [5]): Active
Activity (RAW264.7 [6]): Active
Activity (L02 [7]): Active
Activity (HUVEC [8]): Active
Activity (HUVEC [9]): Active
Drug metabolism (HepG2): Metabolite_Detected
Activity (HUVEC [10]): Active
Activity (Staphylococcus aureus [11]): Active
inhibition at 10 µM (Staphylococcus aureus [12]): 54%
inhibition at 10 µM (Staphylococcus aureus [13]): 28%
Activity (Staphylococcus aureus [14]): 74%
Activity (Staphylococcus aureus [15]): 15%
Activity (Mus musculus [16]): Active
Activity (Mus musculus [17]): Active
Activity (Mus musculus [18]): Active
Drug metabolism [19]: Metabolite detected
Drug metabolism [20]: Metabolite detected
Drug metabolism [21]: Metabolite detected
Drug metabolism [22]: Metabolite detected
Drug metabolism [23]: Metabolite detected
Drug metabolism [24]: Metabolite detected
Drug metabolism [25]: 99%
Drug metabolism [26]: 99.2%
Drug metabolism [27]: 98.6%
Drug metabolism [28]: 96.9%
Drug metabolism [29]: 97.6%
Drug metabolism [30]: 93%
Drug metabolism [31]: Metabolite detected
Drug metabolism [32]: Metabolite detected
Drug metabolism [33]: Metabolite detected
Drug metabolism [34]: Metabolite detected
Drug metabolism [35]: Metabolite detected
Drug metabolism [36]: Metabolite detected
Drug metabolism [37]: Metabolite detected
Drug metabolism [38]: Metabolite detected
Drug metabolism [39]: Metabolite detected
Drug metabolism [40]: Metabolite detected
Drug metabolism [41]: Metabolite detected
Drug metabolism [42]: Metabolite detected
Drug metabolism [43]: Metabolite detected
Drug metabolism [44]: Metabolite detected
Drug metabolism [45]: Metabolite detected
Drug metabolism [46]: Metabolite detected
Drug metabolism [47]: Metabolite detected
Drug metabolism [48]: Metabolite detected
Drug metabolism [49]: Metabolite detected
Drug metabolism [50]: Metabolite detected
Drug metabolism [51]: Metabolite detected
Drug metabolism [52]: Metabolite detected
Drug metabolism [53]: Metabolite detected
Drug metabolism [54]: Metabolite detected
Activity (RAW264.7 [55]): Active
Activity (L02 [56]): Active
Drug metabolism (L02 [57]): Metabolite_Detected
Stability [58]: Stable
Stability [59]: Stable
Activity (Staphylococcus aureus [60]): 160%
Activity (Staphylococcus aureus [61]): Active
Activity [62]: Non-Toxic
Activity (Mus musculus [63]): Active

C[C@H]1COc2c(N3CCN(C)CC3)c(F)cc3c(=O)c(C(=O)O)cn1c23.C[C@H]1COc2c(N3CCN(C)CC3)c(F)cc3c(=O)c(C(=O)O)cn1c23.O [LEVOFLOXACIN]
inhibition at 10 µM (Staphylococcus aureus [13]): 19%
Activity (Staphylococcus aureus [15]): 15%
